In assay [1] the target is T1, AtIPCS2 (Arabidopsis thaliana, UniProt Q9SH93).
T1 construct: The complete open reading frames of AtIPCS2 and AUR1p were amplified from cDNA or GenEZ ORF Clones; made in house; microsomal membranes
T1 sequence (Q9SH93 1-305): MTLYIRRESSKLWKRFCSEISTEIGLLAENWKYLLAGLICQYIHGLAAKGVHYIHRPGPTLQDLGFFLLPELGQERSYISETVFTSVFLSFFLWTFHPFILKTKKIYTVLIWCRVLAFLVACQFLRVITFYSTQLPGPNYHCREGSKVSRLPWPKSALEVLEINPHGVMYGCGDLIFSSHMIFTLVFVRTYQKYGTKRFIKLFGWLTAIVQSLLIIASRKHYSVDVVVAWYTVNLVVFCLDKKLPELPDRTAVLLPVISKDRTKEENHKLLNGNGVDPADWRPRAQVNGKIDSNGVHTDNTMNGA
The assay is described as follows: Secondary screening, 96-well plate microsomal in vitro IPCS enzyme assay (AtIPCS2). The assay is classed as biochemical. Conditions: AtIPCS2 IC50 (95% CI), microsomal membranes, dose response 100 µM to 46 nM, triplicate. The procedure:
(§1) In the secondary screening stage the previously described microsomal-based in vitro IPCS assay was adapted and utilised. Initially, all 106 selective hits from the primary screen were tested, in duplicate, at 10 µM.
(§2) Microsomal material was prepared from MSY23-3C pESC-LEU_AtIPCS2 and MSY23-3C pESC-LEU_AUR1 as previously described. IPCS turnover was assayed using HPTLC (Merck) and imaged using a Fuji FLA−3000 reader and AIDA Image Analyser® software (version 3.52) as previously described. Subsequently, a 96-well plate assay was formatted based on the protocol described by Mina et al.[17]. Following optimisation of substrate concentration and incubation time, each compound at the desired concentration (100 µM to 46 nM; in triplicate), was incubated in 96-well plates (Corning® Costar®) in phosphate buffer (71.4 mM, pH 7.0) with soybean PI (100 µM, final concentration, Avanti), NBD-C6-phytoceramide (15 µM; ThermoFisher) and microsomal membranes (0.3–0.4 Units[17]). Following incubation for 60 minutes (or 40 minutes for MSY23-3C pESC-LEU_AUR1 membranes) at 30 °C the reaction was quenched by the addition of 200 µl methanol per well, the reaction product separated using exchange chromatography in 96-well filter plates (Millipore)[17] and the fluorescence measured at Ex460/Em540 using a fluorescence Microplate Reader (Biotek Synergy H4 with Gen5™). […]

In assay [2] the target is T2, Aur1p (Saccharomyces cerevisiae, UniProt P36107).
T2 construct: The complete open reading frames of AtIPCS2 and AUR1p were amplified from cDNA or GenEZ ORF Clones; made in house; microsomal membranes
T2 sequence (P36107 1-401): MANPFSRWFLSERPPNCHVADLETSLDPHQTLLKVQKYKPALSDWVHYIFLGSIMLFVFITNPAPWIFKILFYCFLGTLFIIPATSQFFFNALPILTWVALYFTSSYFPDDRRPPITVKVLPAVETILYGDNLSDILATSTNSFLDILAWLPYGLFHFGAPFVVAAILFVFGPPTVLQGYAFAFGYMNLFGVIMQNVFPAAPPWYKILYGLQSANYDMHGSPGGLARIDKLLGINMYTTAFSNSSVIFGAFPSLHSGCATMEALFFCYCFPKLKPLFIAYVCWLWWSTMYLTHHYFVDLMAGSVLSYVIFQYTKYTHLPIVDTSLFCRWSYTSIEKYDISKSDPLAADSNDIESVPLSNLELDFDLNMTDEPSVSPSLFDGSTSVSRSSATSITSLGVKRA
T2 sequence (Q06346 1-221 partner): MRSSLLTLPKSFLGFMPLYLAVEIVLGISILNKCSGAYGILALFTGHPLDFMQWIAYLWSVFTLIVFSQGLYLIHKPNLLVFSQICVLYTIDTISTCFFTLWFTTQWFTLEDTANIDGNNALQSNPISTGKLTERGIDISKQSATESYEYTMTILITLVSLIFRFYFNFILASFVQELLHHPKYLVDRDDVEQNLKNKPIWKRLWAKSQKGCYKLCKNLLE
The assay is described as follows: Secondary screening, 96-well plate microsomal in vitro IPCS enzyme assay (Aur1p control). The assay is classed as biochemical. The procedure:
as §1, §2

Assay [3] relates to Arabidopsis seedlings. Briefly: In vivo screening, Arabidopsis seedlings grown on agar. Also on record: species or system A. thaliana (Col0). The procedure:
In vivo testing of the phenylamidine Compound 1 was undertaken against Arabidopsis seedlings grown on agar.
A. thaliana (Col0) seedlings were grown for 10 days on 0.8% Murashige and Skoog (MS) agar and then transferred to 1.2% MS agar containing compounds at the desired concentrations or DMSO as a control. Plants were grown at 20 °C under 16 hour day/8 hour night photoperiod.

Assay [4] concerns the target T1, AtIPCS2. Briefly: HPTLC in vitro IPCS assay of microsomal extracts, NBD-IPC production (AtIPCS2). The assay is classed as biochemical. The note with it: presence vs absence of AbA. The procedure:
In the quadruple pdr1∆ pdr3∆ pdr16∆ pdr17∆ strain, AUR1 was deleted and replaced by a HIS3 selectable marker, with growth supported by expression of the essential AUR1 gene from the plasmid pRS316-AUR1 under uracil selection. […] (Fig. 2).
Figure 2 HPTLC separation of in vitro assayed Aur1p and AtIPCS2 showing the production of NBD-IPC in the presence (+) and absence (−) of AbA. […] NBD-Cer is the substrate, NBD-C6-phytoceramide.
as §2, with “Following optimisation of substrate concentration and incubation time, each compound at the desired concentration (100 µM to 46 nM; in triplicate), was incubated in 96-well plates (Corning® Costar®) in phosphate buffer (71.4 mM, pH 7.0) with soybean PI (100 µM, final concentration, Avanti), NBD-C6-phytoceramide (15 µM; ThermoFisher) and microsomal membranes (0.3–0.4 Units[17]).” left out

Assay [5] addresses T2, Aur1p. Briefly: HPTLC in vitro IPCS assay of microsomal extracts, NBD-IPC production (Aur1p). The assay is classed as biochemical. The note with it: presence vs absence of AbA.
Procedure: Microsomal material was prepared from MSY23-3C pESC-LEU_AtIPCS2 and MSY23-3C pESC-LEU_AUR1 as previously described[33]. IPCS turnover was assayed using HPTLC (Merck) and imaged using a Fuji FLA−3000 reader and AIDA Image Analyser® software (version 3.52) as previously described[17].
Assay [6] has as its system fungal IPCS. The arrangement: method as in PMID 8593016, PMID 9405490, PMID 9614099, PMID 17420565, PMID 19644519. The note with it: inhibitors of the fungal IPCS; cited from earlier work.

Several values for one entry are separate records, joined by “and”; a condition that tells them apart may be missing. Identical values can stand only once. Entries after “also recorded” stand apart in the source; their conditions may differ. Starred links: 1 amine or outer side, 2 acyl side, 3 side chain; linkers in the order of their positions; H or OH if unused. Non-standard residues stand in square brackets, D forms with d. Residues, ends and D or L forms follow the SMILES beside them. X1 = CC[C@@H](C)[C@@H](O[*:1])C(=O)[*:2]; NMeVal(β-OH) = CN[C@H](C(=O)O)C(C)(C)O; NMeF = CN[C@@H](Cc1ccccc1)C(=O)O; aIle = CC[C@@H](C)[C@H](N)C(=O)O; NMeV = CN[C@H](C(=O)O)C(C)C

For orientation: IC50 means the point on the concentration scale where inhibition reaches its midpoint.

In the case of `Cc1cc(Oc2ccc(C#N)c(CC(C)(C)C)c2)c(C)cc1N=CN1CCCCC1` [Compound 1], the IC50 was 4.02 µM and < 5 µM in assay [1]; above 50 µM in assay [2]. Moreover, in assay [3] (7 day old seedlings on agar containing 10 and 40 µM, compared to DMSO control), the “phenotype of treated seedlings” value is “clear purple patches associated with anthocyanin biosynthesis in response to stress[47], and an absence of lateral root development”. The “effects on wild type Col-0 Arabidopsis seedlings, in words” value in assay [3] (in vivo screening, dose response) is “dose dependent effects with decreased lateral root development, and distinctive purple leaf patches; also recorded: induce the plant stress response”. Further, the “concentration at which treatment restricted growth and led to purple leaf patches” value in assay [3] (tested at 3.7, 11, 33 and 100 µM, compared to DMSO control) is reported as at least 11 µM.
Consider `CC[C@@H](C)[C@@H]1NC(=O)[C@@H]2CCCN2C(=O)[C@H](Cc2ccccc2)N(C)C(=O)[C@H](Cc2ccccc2)NC(=O)[C@H](C(C)C)N(C)C(=O)[C@@H]([C@H](C)CC)OC(=O)[C@H](C(C)(C)O)N(C)C(=O)[C@H](CC(C)C)NC(=O)[C@H](C(C)C)N(C)C1=O` [aureobasidin A] (cyclo(F[NMeF]P[aIle][NMeV]L[NMeVal(β-OH)][X1][NMeV])), for which the “sensitivity of AtIPCS2 activity (NBD-IPC production) to the compound” value in assay [4] is on record as “insensitive”. Besides, the “sensitivity of Aur1p activity (NBD-IPC production) to the compound” value in assay [5] is reported as “Only the fungal enzyme Aur1p is sensitive”. In addition, the “IC50 against Saccharomyces cerevisiae” value in assay [6] is “low nano-molar”.
For `CCCCCCCCCC[C@H](C)[C@@H](O)[C@@H](C)/C=C(C)/C=C(\C)C(=O)[C@H](C)/C=C(\C)C(=O)O[C@H](CO)[C@@H](O)[C@H](O)C(=O)O` [khafrefungin], in assay [6], the “IC50 against Saccharomyces cerevisiae” value is “low nano-molar”.
For the compound haplofungin, the “IC50 against Saccharomyces cerevisiae” value in assay [6] was “low nano-molar”.
pleofungin: the “IC50 against Saccharomyces cerevisiae” value in assay [6] is recorded as “low nano-molar”.
As for rustimicin, in assay [6], the “IC50 against Saccharomyces cerevisiae” value is reported as “low nano-molar”.

The values above are taken from paper PMC6542793, “The identification of small molecule inhibitors of the plant inositol phosphorylceramide synthase which demonstrate herbicidal activity” (Scientific Reports, 2019).
